Laboratory results from patent US10479780B2, “Aminopyrazole derivatives” (Chugai Seiyaku Kabushiki Kaisha, priority 2015, dated 2019).

Assays:
Format in all cases: biochemical
[1] = molecular target: T1, human Yes1 enzyme (Homo sapiens, UniProt P07947); test: Yes1 enzyme inhibitory activity (time-resolved fluorometry, biotinylated peptide phosphorylation); conditions: read-out: YES_IC50
T1 construct: made in house
Procedure, shortened: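 Inhibition was expressed against a compound-free control to give IC50, using TR-FRET read-out (Eu-cryptate anti-pTyr antibody, streptavidin-XL665).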

[2] = molecular target: T2, human Src enzyme (Homo sapiens, UniProt P12931); test: Src enzyme inhibitory activity (time-resolved fluorometry, biotinylated peptide phosphorylation); conditions: read-out: SRC_IC50
T2 construct: purchased Carna Biosciences, Inc. 08-173
T2 sequence (P12931 whole entry): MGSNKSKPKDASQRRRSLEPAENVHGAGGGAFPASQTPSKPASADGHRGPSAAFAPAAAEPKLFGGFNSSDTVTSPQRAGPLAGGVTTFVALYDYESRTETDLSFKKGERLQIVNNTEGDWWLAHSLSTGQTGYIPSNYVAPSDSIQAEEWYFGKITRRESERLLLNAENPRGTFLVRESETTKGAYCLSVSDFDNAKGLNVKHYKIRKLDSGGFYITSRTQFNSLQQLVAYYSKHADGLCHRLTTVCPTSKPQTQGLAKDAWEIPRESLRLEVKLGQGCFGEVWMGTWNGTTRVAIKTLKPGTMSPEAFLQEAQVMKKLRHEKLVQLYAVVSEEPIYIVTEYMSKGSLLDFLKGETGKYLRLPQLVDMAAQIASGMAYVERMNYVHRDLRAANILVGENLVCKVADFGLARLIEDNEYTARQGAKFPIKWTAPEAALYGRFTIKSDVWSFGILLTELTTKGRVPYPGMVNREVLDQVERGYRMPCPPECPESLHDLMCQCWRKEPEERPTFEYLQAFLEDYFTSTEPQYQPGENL
Procedure, shortened: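 Compounds were tested for blocking tyrosine phosphorylation of a biotinylated peptide substrate by recombinant human Src. Phosphorylated product was quantified by time-resolved fluorometry using europium cryptate and XL665 conjugates, and IC50 was calculated against the compound-free control.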

[3] = molecular target: T3, human Lck enzyme (Homo sapiens, UniProt P06239); test: Lck enzyme inhibitory activity (time-resolved fluorometry, biotinylated peptide phosphorylation); conditions: read-out: LCK_IC50
T3 construct: purchased Carna Biosciences, Inc. 08-170
T3 sequence (P06239 whole entry): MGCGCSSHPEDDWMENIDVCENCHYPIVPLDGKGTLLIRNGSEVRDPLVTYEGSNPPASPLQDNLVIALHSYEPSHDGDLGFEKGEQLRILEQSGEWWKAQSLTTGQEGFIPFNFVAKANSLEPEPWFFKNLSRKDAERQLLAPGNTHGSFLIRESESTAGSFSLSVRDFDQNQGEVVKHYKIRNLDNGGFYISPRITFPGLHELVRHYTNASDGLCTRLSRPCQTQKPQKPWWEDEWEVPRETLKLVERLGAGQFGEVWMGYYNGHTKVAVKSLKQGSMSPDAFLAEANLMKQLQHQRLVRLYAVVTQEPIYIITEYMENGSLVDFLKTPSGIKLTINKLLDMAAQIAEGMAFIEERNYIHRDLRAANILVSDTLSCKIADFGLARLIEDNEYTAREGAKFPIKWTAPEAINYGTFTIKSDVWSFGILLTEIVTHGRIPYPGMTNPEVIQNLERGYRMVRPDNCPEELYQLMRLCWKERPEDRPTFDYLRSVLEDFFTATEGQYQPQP
Procedure, shortened: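 Readout pairs a europium cryptate-labelled anti-phosphotyrosine antibody with XL665-streptavidin, measured by time-resolved fluorescence. IC50 derived from percent inhibition against untreated controls.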

T1 sequence (P07947 whole entry): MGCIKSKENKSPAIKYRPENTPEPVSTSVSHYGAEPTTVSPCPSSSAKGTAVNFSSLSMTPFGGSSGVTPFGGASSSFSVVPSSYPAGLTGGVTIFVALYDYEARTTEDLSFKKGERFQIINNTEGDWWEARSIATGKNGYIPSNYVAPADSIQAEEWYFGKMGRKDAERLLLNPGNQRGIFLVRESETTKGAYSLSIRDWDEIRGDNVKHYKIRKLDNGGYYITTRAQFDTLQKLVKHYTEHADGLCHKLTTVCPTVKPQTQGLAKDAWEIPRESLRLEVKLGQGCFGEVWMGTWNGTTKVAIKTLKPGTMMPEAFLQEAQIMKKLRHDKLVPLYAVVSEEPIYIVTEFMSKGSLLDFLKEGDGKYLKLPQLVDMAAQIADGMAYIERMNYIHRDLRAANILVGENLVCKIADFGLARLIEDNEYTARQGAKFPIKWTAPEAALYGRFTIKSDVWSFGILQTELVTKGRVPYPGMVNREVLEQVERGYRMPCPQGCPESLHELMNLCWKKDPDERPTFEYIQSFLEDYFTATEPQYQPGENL

SMILES | IC50 [1] [nM] | IC50 [2] [nM] | IC50 [3] [nM]
CCc1cc2cc(C(=O)c3cnn(-c4cnc(Oc5c(F)cccc5F)cc4C)c3N)[nH]c2cc1NS(C)(=O)=O [Example 5-1-141, N-[2-[5-amino-1-[6-(2,6-difluorophenoxy)-4-methylpyridin-3-yl]pyrazole-4-carbonyl]-5-ethyl-1H-indol-6-yl]methanesulfonamide] | 2.4 | 75 | 27
Cc1cc2cc(C(=O)c3cnn(-c4c(C)cc(Oc5c(F)cccc5Cl)cc4F)c3N)[nH]c2cc1NS(C)(=O)=O [Example 5-1-142, N-[2-[5-amino-1-[4-(2-chloro-6-fluorophenoxy)-2-fluoro-6-methylphenyl]pyrazole-4-carbonyl]-5-methyl-1H-indol-6-yl] methanesulfonamide] | 5.6 | 99 | 52
Cc1cc2cc(C(=O)c3cnn(-c4cnc(Oc5c(F)cccc5F)cc4C)c3N)[nH]c2cc1C1CCN(S(=O)(=O)C2CC2)CC1 [Example 5-1-144, [5-amino-1-[6-(2,6-difluorophenoxy)-4-methylpyridin-3-yl]pyrazol-4-yl]-[6-(1-cyclopropylsulfonylpiperidin-4-yl)-5-methyl-1H-indol-2-yl]methanone] | 5.7 | 81 | 76
Cc1cc(Oc2c(F)cccc2F)ncc1-n1ncc(C(=O)c2cc3cc(OC(F)F)c(Br)cc3[nH]2)c1N [Example 5-1-149, [5-amino-1-[6-(2,6-difluorophenoxy)-4-methylpyridin-3-yl]pyrazol-4-yl]-[6-bromo-5-(difluoromethoxy)-1H-indol-2-yl]methanone] | 5 | 57 | 43
Cc1cc(-n2ncc(C(=O)c3cc4cc(N5CCOCC5)c(Br)cc4[nH]3)c2N)ccc1Oc1ccccc1F [Example 5-1-151, [5-amino-1-[4-(2-fluorophenoxy)-3-methylphenyl]pyrazol-4-yl]-(6-bromo-5-morpholin-4-yl-1H-indol-2-yl)methanone] | 2.9 | 600 | 80
Cc1cc(-n2ncc(C(=O)c3cc4cc(N5CCOCC5)c(NS(C)(=O)=O)cc4[nH]3)c2N)ccc1Oc1ccccc1F [Example 5-1-157, N-[2-[5-amino-1-[4-(2-fluorophenoxy)-3-methylphenyl]pyrazole-4-carbonyl]-5-morpholin-4-yl-1H-indol-6-yl] methanesulfonamide] | 1.9 | 1100 | 480
Cc1cc(-n2ncc(C(=O)c3cc4cc(OC(F)F)c(N)cc4[nH]3)c2N)ccc1Oc1ccccc1F [Example 5-1-161, [6-amino-5-(difluoromethoxy)-1H-indol-2-yl]-[5-amino-1-[4-(2-fluorophenoxy)-3-methylphenyl]pyrazol-4-yl]methanone] | 2.8 | 600 | 160
Cc1cc(-n2ncc(C(=O)c3cc4cc(OCC(F)F)c(N)cc4[nH]3)c2N)ccc1Oc1ccccc1F [Example 5-1-162, [6-amino-5-(2,2-difluoroethoxy)-1H-indol-2-yl]-[5-amino-1-[4-(2-fluorophenoxy)-3-methylphenyl]pyrazol-4-yl]methanone] | 2.1 | 480 | 120
Cc1cc(-n2ncc(C(=O)c3cc4cc(N5CCOCC5)c(N5C(=O)NC(C)(C)C5=O)cc4[nH]3)c2N)ccc1Oc1ccccc1F [Example 5-1-164, 3-[2-[5-amino-1-[4-(2-fluorophenoxy)-3-methylphenyl]pyrazole-4-carbonyl]-5-morpholin-4-yl-1H-indol-6-yl]-5,5-dimethylimidazolidine-2,4-dione] | 1.8 | 700 | 69
Cc1cc(-n2ncc(C(=O)c3cc4cc(N5CCOCC5)c(N5CCC(N6CCOCC6)CC5)cc4[nH]3)c2N)ccc1Oc1ccccc1F [Example 5-1-165, [5-amino-1-[4-(2-fluorophenoxy)-3-methylphenyl]pyrazol-4-yl]-[5-morpholin-4-yl-6-(4-morpholin-4-ylpiperidin-1-yl)-1H-indol-2-yl] methanone] | 1.8 | 340 | 37

The next compounds have a lower IC50 [1] than those just listed; values first:

IC50 [1] [nM] | IC50 [2] [nM] | IC50 [3] [nM] | SMILES
1.6 | 16 | 8.2 | COc1cc2cc(C(=O)c3cnn(-c4cnc(Oc5ccccc5F)cc4C)c3N)[nH]c2cc1Br [Example 5-1-145, [5-amino-1-[6-(2-fluorophenoxy)-4-methylpyridin-3-yl]pyrazol-4-yl]-(6-bromo-5-methoxy-1H-indol-2-yl)methanone]
1.6 | 22 | 12 | Cc1cc(Oc2c(F)cccc2F)ncc1-n1ncc(C(=O)c2cc3cc(N4CCOCC4)c(Br)cc3[nH]2)c1N [Example 5-1-155, [5-amino-1-[6-(2,6-difluorophenoxy)-4-methylpyridin-3-yl]pyrazol-4-yl]-(6-bromo-5-morpholin-4-yl-1H-indol-2-yl)methanone]
1.6 | 1100 | 64 | Cc1cc(-n2ncc(C(=O)c3cc4cc(OC5CCN(C(C)C)CC5)c(NS(C)(=O)=O)cc4[nH]3)c2N)ccc1Oc1ccccc1F [Example 5-1-156, N-(2-(5-amino-1-(4-(2-fluorophenoxy)-3-methylphenyl)-1H-pyrazole-4-carbonyl)-5-((1-isopropylpiperidin-4-yl)oxy)-1H-indol-6-yl)methanesulfonamide]
1.4 | 96 | 39 | Cc1cc(-n2ncc(C(=O)c3cc4cc(N5CCOCC5)c(N5CCOCC5)cc4[nH]3)c2N)ccc1Oc1ccccc1F [Example 5-1-159, [5-amino-1-[4-(2-fluorophenoxy)-3-methylphenyl]pyrazol-4-yl]-(5,6-dimorpholin-4-yl-1H-indol-2-yl)methanone]
0.9 | 76 | 42 | Cc1cc(-n2ncc(C(=O)c3cc4cc(N5CCOCC5)c(N5CCN(S(C)(=O)=O)CC5)cc4[nH]3)c2N)ccc1Oc1ccccc1F [Example 5-1-158, [5-amino-1-[4-(2-fluorophenoxy)-3-methylphenyl]pyrazol-4-yl]-[6-(4-methylsulfonylpiperazin-1-yl)-5-morpholin-4-yl-1H-indol-2-yl]methanone]
0.71 | 230 | 33 | Cc1cc(-n2ncc(C(=O)c3cc4cc(N5CCOCC5)c(N5CCOC5=O)cc4[nH]3)c2N)ccc1Oc1ccccc1F [Example 5-1-160, 3-[2-[5-amino-1-[4-(2-fluorophenoxy)-3-methylphenyl]pyrazole-4-carbonyl]-5-morpholin-4-yl-1H-indol-6-yl]-1,3-oxazolidin-2-one]
0.67 | 11 | 4.3 | Cc1cc(Oc2ccccc2F)cc(F)c1-n1ncc(C(=O)c2cc3cc(OC4CCN(C(C)C)CC4)c(Br)cc3[nH]2)c1N [Example 5-1-154, [5-amino-1-[2-fluoro-4-(2-fluorophenoxy)-6-methylphenyl]pyrazol-4-yl]-[6-bromo-5-(1-propan-2-ylpipendin-4-yl)oxy-1H-indol-2-yl] methanone]
0.64 | 59 | 7 | Cc1cc(-n2ncc(C(=O)c3cc4cc(OC5CCN(C(C)C)CC5)c(N)cc4[nH]3)c2N)ccc1Oc1ccccc1F [Example 5-1-163, (5-amino-1-(4-(2-fluorophenoxy)-3-methylphenyl)-1H-pyrazol-4-yl)(6-amino-5-((1-isopropylpiperidin-4-yl)oxy)-1H-indol-2-yl)methanone]
0.59 | 15 | 11 | COc1cc2cc(C(=O)c3cnn(-c4cnc(Oc5c(F)cccc5F)cc4C)c3N)[nH]c2cc1NS(=O)(=O)CC(=O)N1CCOCC1 [Example 5-1-143, N-[2-[5-amino-1-[6-(2,6-difluorophenoxy)-4-methylpyridin-3-yl]pyrazole-4-carbonyl]-5-methoxy-1H-indol-6-yl]-2-morpholin-4-yl-2-oxoethanesulfonamide]
0.57 | 5.1 | 12 | Cc1cc(Oc2ccccc2F)ccc1-n1ncc(C(=O)c2cc3cc(N4CCOCC4)c(Br)cc3[nH]2)c1N [Example 5-1-147, [5-amino-1-[4-(2-fluorophenoxy)-2-methylphenyl]pyrazol-4-yl]-(6-bromo-5-morpholin-4-yl-1H-indol-2-yl)methanone]
0.57 | 180 | 47 | Cc1cc(-n2ncc(C(=O)c3cc4cc(OC5CCN(C(C)C)CC5)c(Br)cc4[nH]3)c2N)ccc1Oc1ccccc1F [Example 5-1-148, [5-amino-1-[4-(2-fluorophenoxy)-3-methylphenyl]pyrazol-4-yl]-[6-bromo-5-(1-propan-2-ylpiperidin-4-yl)oxy-1H-indol-2-yl] methanone]
0.53 | 7.9 | 3 | Cc1cc(Oc2ccccc2F)ncc1-n1ncc(C(=O)c2cc3cc(OC4CCN(C(C)C)CC4)c(Br)cc3[nH]2)c1N [Example 5-1-153, [5-amino-1-[6-(2-fluorophenoxy)-4-methylpyridin-3-yl]pyrazol-4-yl]-[6-bromo-5-(1-propan-2-ylpiperidin-4-yl)oxy-1H-indol-2-yl] methanone]
0.27 | 2.2 | 5.3 | Cc1cc(Oc2ccccc2F)ccc1-n1ncc(C(=O)c2cc3cc(OC4CCN(C(C)C)CC4)c(Br)cc3[nH]2)c1N [Example 5-1-146, [5-amino-1-[4-(2-fluorophenoxy)-2-methylphenyl]pyrazol-4-yl]-[6-bromo-5-(1-propan-2-ylpiperidin-4-yl)oxy-1H-indol-2-yl] methanone]
